# Data as given in patent US20230000876A1, “TREATING CANCERS WITH A CYCLIN-DEPENDENT KINASE INHIBITOR” (Nuvation Bio Inc., priority 2021, published 2023).
# Columns and labels:
# [1] = tested on: U-118MG xenograft tumors; test: U-118MG glioma subcutaneous xenograft model; assay type: in vivo, female CB17 SCID mice; details: for T/C / TGI / Tumor Size: PG-D27
# Method: The tumor cells were routinely subcultured twice weekly. The cells growing in an exponential growth phase were harvested and counted for tumor inoculation.
# The treatments was started on day 7 after tumor inoculation when the average tumor volume reached 150 mm^3. 60 mice were selected and assigned into 6 groups. The testing articles were administrated to the mice according to Table 1.
# Tumor size was measured twice weekly in two dimensions using a caliper, and the volume was expressed in mm^3 using the formula: V=0.5 a×b^2 where a and b are the long and short diameters of the tumor, respectively. The tumor sizes are then used for the calculation of T/C and TGI values.
# The T/C value (in percent) is an indication of antitumor effectiveness; T and C are the mean volume of the treated and control groups, respectively, on a given day.
# TGI was calculated for each group using the formula: TGI (%)=[1−(Ti−T0)/(Vi−V0)]×100; Ti is the average tumor volume of a treatment group on PG-D28 T0 is the average tumor volume of the treatment group on the day of treatment start, Vi is the average tumor volume of the vehicle control group on the same day with Ti, and V0 is the average tumor volume of the vehicle group on the day of treatment start.
# All Groups were taken down on PG-D28, tumor, plasma and brain samples were collected.
# For statistical analysis for difference among groups 2-6 and group 1, a one-way ANOVA was performed. All the analysis were conducted using GraphPad Prism software. p<0.05 was considered to be statistically significant.
# [2] = tested on: PC-9-luc; test: CellTiter-Glo anti-proliferation assay, PC-9-luc; assay type: cell-based
# Method: The anti-proliferation effect of 2 compounds (the compound of formula (I) and temozolomide) in 7 CNS metastasis cell lines (MOLT-4-luc, Nalm-6-luc, NCI-H460-luc, ACHN-luc2, PC-9-luc, H1975-luc, and KM12-luc) was evaluated.
# The plating of cells and compound treatments are shown below in the plate map (Table 12). One plate was needed for the test of 2 compounds (the compound of formula (I) and temozolomide) in one cell line. The compound of formula (I) was tested from 10 μM, 3-fold serial dilution. Temozolomide was tested from 100 μM, 3-fold serial dilution.
# All the cell lines were maintained in culture conditions at 37° C. in an atmosphere with 5% CO2 in air. The tumor cells were routinely subcultured. The cells growing in an exponential growth phase were harvested and counted for plating.
# Cells were counted by haemocytometer with Trypan blue staining. Next, 135 μL of cell suspension were plated into the assay plates according to the plate map and 135 μL of assay medium into the blank wells. The plates were incubated at 37° C., 5% CO2, 95% air and 100% relative humidity overnight.
# 4.4.4 Compound Plate (10×) Preparation and Compound Treatment • 10× concentrate compound plate preparation: Add 198 μL of assay medium into each well of the V-bottom plate; then transfer 2 μL of the stock compound solution of each concentration from the stock plate. Add 2 μL of DMSO into the Blank and Control wells. Pipette up and down to mix well. This V-plate is designated as the 10× concentrate compound plate. • For day 0 plate, add 15 μL of the DMSO-medium into the Control wells. The final DMSO concentration was 0.1%. Then directly proceed to cell viability assay. • For assay plate, add 15 μL of the compound-medium of each well from the 10× concentrate compound plate into the cells in 96-well assay plate according to the plate map. Add 15 μL of the DMSO-medium into the Blank and Control wells. The final DMSO concentration was 0.1%. • Return the assay plate into incubator and incubate for 6 days.
# The procedures were performed according to the Promega CellTiter-Glo Luminescent Cell Viability Assay Kit manual (Promega-G7573). • The CellTiter-Glo buffer was thawed and equilibrated to room temperature prior to use. • CellTiter-Glo Substrate was equilibrated to room temperature prior to use. • The entire liquid volume of CellTiter-Glo Buffer was transferred into the amber bottle containing CellTiter-Glo Substrate to reconstitute the lyophilized enzyme/substrate mixture. This forms the CellTiter-Glo Reagent. • The contents were mixed by gently vortexing to obtain a homogeneous solution. • The plate was equilibrated and its contents to room temperature for approximately 30 minutes. 75 μL (equal to the half volume of culture medium present in each well) CellTiter-Glo • Reagent was added in each well. Plates were covered with aluminum foil to protect from light. • The contents were mixed for 2 minutes on an orbital shaker to induce cell lysis. • The plate was incubated at room temperature for 20 minutes to stabilize luminescent signal. • Record luminescence on the 2104 EnVision plate reader.
# Inhibition rate (IR) of the tested compounds was determined by the following formula: IR (%)=(1−(RLU compound−RLU day0)/(RLU control−RLU day0))*100%. The inhibitions of different dose of compound were calculated in Excel file, and then were used to plot inhibition curves and evaluate related parameters, such as Min (%), Max (%) and GI50. The data were interpreted by GraphPad Prism.
# [3] = tested on: U-118MG xenograft tumors; test: U-118MG glioma subcutaneous xenograft model; assay type: in vivo, female CB17 SCID mice; details: Group 3: Compound (I) 30 mg/kg PO, QD; PG-D27
# [4] = Group 2: Compound (I) 10 mg/kg PO, QD
# [5] = Group 3: Compound (I) 30 mg/kg PO, QD
# [6] = Group 4: Compound (I) 60 mg/kg PO, QD
# [7] = Group 5: Compound (I) 60 mg/kg PO, QOD
# [8] = inhibition rate, 6 days, Compound (I) from 10 μM, temozolomide from 100 μM, 3-fold, 9 points
smiles,measurement,setting,value
"CC(C)N1CCOc2c(F)cc(-c3nc(Nc4ccc(C5CCN(C)CC5)cn4)ncc3F)cc21 [Compound (I), 5-fluoro-4-(8-fluoro-4-isopropyl-3,4-dihydro-2H-benzo[b][1,4]oxazin-6-yl)-N-(5-(1-methylpiperidin-4-yl)pyridin-2-yl)pyrimidin-2-amine]",Tumor volume (mean ± SEM),"[1]; 10 mg/kg PO QD, day 0",154 ± 12 mm^3
same,Tumor volume (mean ± SEM),"[1]; 10 mg/kg PO QD, day 3",238 ± 16 mm^3
same,Tumor volume (mean ± SEM),"[1]; 10 mg/kg PO QD, day 7",277 ± 20 mm^3
same,Tumor volume (mean ± SEM),"[1]; 10 mg/kg PO QD, day 10",291 ± 28 mm^3
same,Tumor volume (mean ± SEM),"[1]; 10 mg/kg PO QD, day 14",275 ± 28 mm^3
same,Tumor volume (mean ± SEM),"[1]; 10 mg/kg PO QD, day 17",281 ± 34 mm^3
same,Tumor volume (mean ± SEM),"[1]; 10 mg/kg PO QD, day 21",269 ± 43 mm^3
same,Tumor volume (mean ± SEM),"[1]; 10 mg/kg PO QD, day 24",270 ± 40 mm^3
same,Tumor volume (mean ± SEM),"[1]; 10 mg/kg PO QD, day 28",273 ± 39 mm^3
same,Tumor volume (mean ± SEM),"[1]; 30 mg/kg PO QD, day 0",155 ± 11 mm^3
same,Tumor volume (mean ± SEM),"[1]; 30 mg/kg PO QD, day 3",237 ± 22 mm^3
same,Tumor volume (mean ± SEM),"[1]; 30 mg/kg PO QD, day 7",273 ± 26 mm^3
same,Tumor volume (mean ± SEM),"[1]; 30 mg/kg PO QD, day 10",241 ± 25 mm^3
same,Tumor volume (mean ± SEM),"[1]; 30 mg/kg PO QD, day 14",230 ± 19 mm^3
same,Tumor volume (mean ± SEM),"[1]; 30 mg/kg PO QD, day 17",214 ± 16 mm^3
same,Tumor volume (mean ± SEM),"[1]; 30 mg/kg PO QD, day 21",193 ± 17 mm^3
same,Tumor volume (mean ± SEM),"[1]; 30 mg/kg PO QD, day 24",174 ± 19 mm^3
same,Tumor volume (mean ± SEM),"[1]; 30 mg/kg PO QD, day 28",172 ± 18 mm^3
same,Tumor volume (mean ± SEM),"[1]; 60 mg/kg PO QD, day 0",156 ± 12 mm^3
same,Tumor volume (mean ± SEM),"[1]; 60 mg/kg PO QD, day 3",220 ± 17 mm^3
same,Tumor volume (mean ± SEM),"[1]; 60 mg/kg PO QD, day 7",264 ± 14 mm^3
same,Tumor volume (mean ± SEM),"[1]; 60 mg/kg PO QD, day 10",227 ± 10 mm^3
same,Tumor volume (mean ± SEM),"[1]; 60 mg/kg PO QD, day 14",202 ± 10 mm^3
same,Tumor volume (mean ± SEM),"[1]; 60 mg/kg PO QD, day 17",174 ± 12 mm^3
same,Tumor volume (mean ± SEM),"[1]; 60 mg/kg PO QD, day 21",160 ± 10 mm^3
same,Tumor volume (mean ± SEM),"[1]; 60 mg/kg PO QD, day 24",156 ± 8 mm^3
same,Tumor volume (mean ± SEM),"[1]; 60 mg/kg PO QD, day 28",156 ± 8 mm^3
same,Tumor volume (mean ± SEM),"[1]; 60 mg/kg PO QOD, day 0",154 ± 11 mm^3
same,Tumor volume (mean ± SEM),"[1]; 60 mg/kg PO QOD, day 3",233 ± 20 mm^3
same,Tumor volume (mean ± SEM),"[1]; 60 mg/kg PO QOD, day 7",304 ± 27 mm^3
same,Tumor volume (mean ± SEM),"[1]; 60 mg/kg PO QOD, day 10",273 ± 28 mm^3
same,Tumor volume (mean ± SEM),"[1]; 60 mg/kg PO QOD, day 14",234 ± 22 mm^3
same,Tumor volume (mean ± SEM),"[1]; 60 mg/kg PO QOD, day 17",215 ± 22 mm^3
same,Tumor volume (mean ± SEM),"[1]; 60 mg/kg PO QOD, day 21",193 ± 20 mm^3
same,Tumor volume (mean ± SEM),"[1]; 60 mg/kg PO QOD, day 24",183 ± 21 mm^3
same,Tumor volume (mean ± SEM),"[1]; 60 mg/kg PO QOD, day 28",177 ± 22 mm^3
same,T/C,[1]; [4],43.20%
same,TGI,[1]; [4],75.08%
same,Tumor Size,[1]; [4],273 ± 39 mm^3
same,T/C,[1]; [5],27.32%
same,Tumor Size,[1]; [5],172 ± 18 mm^3
same,T/C,[1]; [6],24.64%
same,TGI,[1]; [6],100.03%
same,Tumor Size,[1]; [6],156 ± 8 mm^3
same,T/C,[1]; [7],28.09%
same,TGI,[1]; [7],95.14%
same,Tumor Size,[1]; [7],177 ± 22 mm^3
same,Antitumor activity relative to the control group,"[1]; mouse, in vivo",dose-dependent and statistically significant antitumor activity
same,Effect of 30 mg/kg QD compared with 60 mg/kg QOD,"[1]; mouse, in vivo",similar
same,GI50,"[2]; 144 h, 6 days incubation, read-out: Absolute GI50",2.79 µM
same,Max (%),[2]; [8],116.3%
same,Min (%),[2]; [8],−13.7%
same,TGI,[3],96.40%
